{"source": "patent US10413535B2", "about": "“Pharmaceutical compositions comprising an integrin ALPHA4 antagonist for use in treating ocular inflammatory conditions” (AXEROVISION, INC., priority 2015, dated 2019)", "key": {"[1]": {"assay": "Toxicokinetics in 13-week topical ocular dog study", "conditions": "beagle, in vivo, topical or ocular", "procedure": "GW559090A was given to Beagle Dogs by topical ocular administration for 13 weeks. Animals were dosed six or twelve times per day, with one hour between doses. Treatment groups were: (1) vehicle (12 times a day), (2) 30 mg/mL/occasion given six times a day, (3) 50 mg/mL/occasion given six times a day, or (4) 50 mg/mL/occasion, given 12 times a day.\nGW559090A was formulated as a stock solution in 25 mM phosphate buffer with 0.5% sodium chloride to provide a 50 mg/mL stock solution, which was used for administration to Groups 3 or 4, or further diluted with 25 mM phosphate buffer with 0.75% sodium chloride to provide a 30 mg/mL solution for administration to Group 2.\nDuring the 13 week treatment period dogs received daily topical ocular doses of GW559090 or vehicle (12 times a day) at a constant dose volume of 0.06 mL (given 6 or 12 times a day, with one hour between doses). The test article formulation or vehicle was carefully dropped into the everted lower eyelid of the left eye from a suitable distance, to prevent contact of the positive displacement pipette with the eye. The lower and upper lids were then gently held together for approximately five seconds, to prevent loss of dose and aid even distribution across the external ocular surface. The un-dosed eye was not manipulated at any time and served as a within animal untreated control site."}, "α4β1-CS-1": {"biological_target": "T1, α4β1-CS-1 (Homo sapiens, UniProt P05556+P13612)", "T1 construct": "characterized in human J6 cells which express VLA-4; endogenous in cells; host or cells: Jurkat J6 cells (human lymphoblast cell line)", "T1 sequence (P13612 34-1032)": "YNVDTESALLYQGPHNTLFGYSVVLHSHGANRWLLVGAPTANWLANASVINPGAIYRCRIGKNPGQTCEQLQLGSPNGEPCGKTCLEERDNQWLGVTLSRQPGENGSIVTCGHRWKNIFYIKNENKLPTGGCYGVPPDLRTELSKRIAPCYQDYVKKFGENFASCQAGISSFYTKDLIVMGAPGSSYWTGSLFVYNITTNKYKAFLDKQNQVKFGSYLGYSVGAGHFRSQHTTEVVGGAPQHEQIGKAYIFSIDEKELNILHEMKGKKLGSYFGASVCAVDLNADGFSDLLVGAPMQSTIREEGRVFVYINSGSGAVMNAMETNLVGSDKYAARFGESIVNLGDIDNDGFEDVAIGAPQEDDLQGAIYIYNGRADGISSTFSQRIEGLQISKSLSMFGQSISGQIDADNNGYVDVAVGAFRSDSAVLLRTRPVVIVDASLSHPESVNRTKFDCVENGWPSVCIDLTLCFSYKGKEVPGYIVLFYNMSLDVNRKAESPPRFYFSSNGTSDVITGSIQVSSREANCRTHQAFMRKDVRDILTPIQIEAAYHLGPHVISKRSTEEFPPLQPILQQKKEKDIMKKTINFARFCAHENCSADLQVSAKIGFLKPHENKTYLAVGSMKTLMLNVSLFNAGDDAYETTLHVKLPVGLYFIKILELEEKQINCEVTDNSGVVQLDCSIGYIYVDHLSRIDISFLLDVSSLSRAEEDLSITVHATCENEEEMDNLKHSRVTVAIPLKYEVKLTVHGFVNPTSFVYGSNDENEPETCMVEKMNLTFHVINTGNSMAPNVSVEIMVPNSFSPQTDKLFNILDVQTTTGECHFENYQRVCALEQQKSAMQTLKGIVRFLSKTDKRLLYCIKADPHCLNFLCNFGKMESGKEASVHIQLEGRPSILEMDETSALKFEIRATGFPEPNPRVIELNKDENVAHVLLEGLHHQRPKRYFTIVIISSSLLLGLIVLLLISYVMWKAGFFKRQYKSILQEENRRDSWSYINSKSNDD", "T1 sequence (P05556 21-798)": "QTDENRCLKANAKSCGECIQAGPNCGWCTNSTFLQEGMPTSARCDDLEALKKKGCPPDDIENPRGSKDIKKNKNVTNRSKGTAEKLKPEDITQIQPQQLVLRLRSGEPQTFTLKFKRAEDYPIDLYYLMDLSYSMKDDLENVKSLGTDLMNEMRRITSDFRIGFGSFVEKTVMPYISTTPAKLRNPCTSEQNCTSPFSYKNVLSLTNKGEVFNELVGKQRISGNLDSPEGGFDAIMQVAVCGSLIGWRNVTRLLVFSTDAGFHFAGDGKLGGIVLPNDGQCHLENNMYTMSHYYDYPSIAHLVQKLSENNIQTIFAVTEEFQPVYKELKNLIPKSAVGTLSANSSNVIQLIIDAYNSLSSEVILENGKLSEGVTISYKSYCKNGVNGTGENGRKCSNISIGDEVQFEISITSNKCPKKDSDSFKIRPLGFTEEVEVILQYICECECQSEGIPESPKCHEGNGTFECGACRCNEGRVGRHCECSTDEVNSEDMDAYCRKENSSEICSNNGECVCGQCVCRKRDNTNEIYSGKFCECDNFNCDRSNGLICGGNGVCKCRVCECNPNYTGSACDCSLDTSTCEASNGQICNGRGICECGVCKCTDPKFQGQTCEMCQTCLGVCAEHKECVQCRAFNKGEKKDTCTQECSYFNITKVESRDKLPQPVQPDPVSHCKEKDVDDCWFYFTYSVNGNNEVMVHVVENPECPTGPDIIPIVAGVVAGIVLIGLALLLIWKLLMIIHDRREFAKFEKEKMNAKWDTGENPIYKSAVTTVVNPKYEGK", "assay": "CS-1 cell adhesion assay, Jurkat J6 cells", "type": "cell-based", "conditions": "J6 cells to CS-1; read-out: Inhibition of cell adhesion (IC50)", "procedure": "Jurkat J6 cells (human lymphoblast cell line) were grown as a suspension culture in RPMI 1640 supplemented with FCS (10%) and glutamine (2 mM). RPMI8866 cells (human B lymphoid cell line) were grown as a suspension culture in RPMI 1640 supplemented with FCS (10%) and glutamine (2 mM). RBL-2H3 cells (rat basophilic cell line) were cultured in Eagle's MEM plus Earles salts supplemented with 2 mM L-glutamine, 1 mM sodium pyruvate, 1× non-essential amino acids, 1 mM Na pyruvate 10% heat inactivated foetal calf serum.\nPolystyrene 96-well microtitre plates were coated with CS-1 (connecting segment 1, a cell attachment domain of fibronectin) at a concentration of 0.01 mg/mL in bicarbonate buffer overnight at 4° C. The solution was aspirated and the plates washed twice with PBS. The plates were then incubated at room temperature in the presence of 3% BSA for 60 min, ‘flicked’ to expel the BSA and washed twice in bicarbonate buffer. J6 or RPMI cells (as required) were labelled with the fluorescent dye BCECF-AM (10 μM and 6×10^6 cells/mL) for 10 min at 37° C. before the excess was removed by centrifugation at 500 g for 5 min and the cells resuspended at a cell concentration of 1.2×10^7 cells/mL in HBSS. Equal volumes of HBSS containing the compound of formula I (over concentration range 19.0 pM to 5 μM) and cells were added to the CS-1 coated plates. […] The plates were counted in a Wallac Viktor."}}, "note": "pIC50: −log10 of the molar value. Read-outs that look alike come from different tables or passages of the source.", "data": [{"smiles": "Cc1ccccc1OCC(=O)N[C@@H](CC(C)C)C(=O)N[C@@H](Cc1ccc(OC(=O)N2CCC(C(N)=O)CC2)cc1)C(=O)O", "note": "[GW559090, (2S)-3-[4-({[4-(Aminocarbonyl)-1-piperidinyl]carbonyl}oxy)phenyl]-2-[((2S)-4-methyl-2-{[2-(2-methylphenoxy)acetyl]amino}pentanoyl)amino]propanoic acid]", "values": [{"measurement": "AUC(0-t)", "setting": "[1]; female, 50 mg/mL/occasion, female dogs, 50 mg/mL, 12 daily doses, Week 13, read-out: AUC0-24", "value": 146, "unit": "ng·h/mL"}, {"measurement": "Cmax", "setting": "[1]; female, 50 mg/mL/occasion, female dogs, 50 mg/mL, 12 daily doses, Week 13, read-out: Cmax", "value": 30.5, "unit": "ng/mL"}, {"measurement": "AUC(0-t)", "setting": "[1]; male, 30 mg/mL/occasion, male dogs, 30 mg/mL, 6 daily doses, Day 1, read-out: AUC0-1", "value": 3.82, "unit": "ng·h/mL"}, {"measurement": "AUC(0-t)", "setting": "[1]; male, 30 mg/mL/occasion, male dogs, 30 mg/mL, 6 daily doses, Day 1, read-out: AUC0-24", "value": 22.9, "unit": "ng·h/mL"}, {"measurement": "Cmax", "setting": "[1]; male, 30 mg/mL/occasion, male dogs, 30 mg/mL, 6 daily doses, Day 1, read-out: Cmax", "value": 7.41, "unit": "ng/mL"}, {"measurement": "Tmax", "setting": "[1]; male, 30 mg/mL/occasion, male dogs, 30 mg/mL, 6 daily doses, Week 4", "value": 15, "unit": "min"}, {"measurement": "AUC(0-t)", "setting": "[1]; male, 30 mg/mL/occasion, male dogs, 30 mg/mL, 6 daily doses, Week 4, read-out: AUC0-1", "value": 2.27, "unit": "ng·h/mL"}, {"measurement": "AUC(0-t)", "setting": "[1]; male, 30 mg/mL/occasion, male dogs, 30 mg/mL, 6 daily doses, Week 4, read-out: AUC0-24", "value": 13.6, "unit": "ng·h/mL"}, {"measurement": "Cmax", "setting": "[1]; male, 30 mg/mL/occasion, male dogs, 30 mg/mL, 6 daily doses, Week 4, read-out: Cmax", "value": 5.3, "unit": "ng/mL"}, {"measurement": "Tmax", "setting": "[1]; male, 30 mg/mL/occasion, male dogs, 30 mg/mL, 6 daily doses, Week 13", "value": 30, "unit": "min"}, {"measurement": "AUC(0-t)", "setting": "[1]; male, 30 mg/mL/occasion, male dogs, 30 mg/mL, 6 daily doses, Week 13, read-out: AUC0-1", "value": 3.81, "unit": "ng·h/mL"}, {"measurement": "AUC(0-t)", "setting": "[1]; male, 30 mg/mL/occasion, male dogs, 30 mg/mL, 6 daily doses, Week 13, read-out: AUC0-24", "value": 22.9, "unit": "ng·h/mL"}, {"measurement": "Cmax", "setting": "[1]; male, 30 mg/mL/occasion, male dogs, 30 mg/mL, 6 daily doses, Week 13, read-out: Cmax", "value": 7.03, "unit": "ng/mL"}, {"measurement": "Tmax", "setting": "[1]; male, 50 mg/mL/occasion, male dogs, 50 mg/mL, 6 daily doses, Day 1", "value": 4.98, "unit": "min"}, {"measurement": "AUC(0-t)", "setting": "[1]; male, 50 mg/mL/occasion, male dogs, 50 mg/mL, 6 daily doses, Day 1, read-out: AUC0-1", "value": 18.4, "unit": "ng·h/mL"}, {"measurement": "AUC(0-t)", "setting": "[1]; male, 50 mg/mL/occasion, male dogs, 50 mg/mL, 6 daily doses, Day 1, read-out: AUC0-24", "value": 110, "unit": "ng·h/mL"}, {"measurement": "Cmax", "setting": "[1]; male, 50 mg/mL/occasion, male dogs, 50 mg/mL, 6 daily doses, Day 1, read-out: Cmax", "value": 52.8, "unit": "ng/mL"}, {"measurement": "Tmax", "setting": "[1]; male, 50 mg/mL/occasion, male dogs, 50 mg/mL, 6 daily doses, Week 4", "value": 10, "unit": "min"}, {"measurement": "AUC(0-t)", "setting": "[1]; male, 50 mg/mL/occasion, male dogs, 50 mg/mL, 6 daily doses, Week 4, read-out: AUC0-1", "value": 8.74, "unit": "ng·h/mL"}, {"measurement": "AUC(0-t)", "setting": "[1]; male, 50 mg/mL/occasion, male dogs, 50 mg/mL, 6 daily doses, Week 4, read-out: AUC0-24", "value": 52.4, "unit": "ng·h/mL"}, {"measurement": "Cmax", "setting": "[1]; male, 50 mg/mL/occasion, male dogs, 50 mg/mL, 6 daily doses, Week 4, read-out: Cmax", "value": 24.2, "unit": "ng/mL"}, {"measurement": "Tmax", "setting": "[1]; male, 50 mg/mL/occasion, male dogs, 50 mg/mL, 6 daily doses, Week 13", "value": 15, "unit": "min"}, {"measurement": "AUC(0-t)", "setting": "[1]; male, 50 mg/mL/occasion, male dogs, 50 mg/mL, 6 daily doses, Week 13, read-out: AUC0-1", "value": 6.36, "unit": "ng·h/mL"}, {"measurement": "AUC(0-t)", "setting": "[1]; male, 50 mg/mL/occasion, male dogs, 50 mg/mL, 6 daily doses, Week 13, read-out: AUC0-24", "value": 38.2, "unit": "ng·h/mL"}, {"measurement": "Cmax", "setting": "[1]; male, 50 mg/mL/occasion, male dogs, 50 mg/mL, 6 daily doses, Week 13, read-out: Cmax", "value": 13.2, "unit": "ng/mL"}, {"measurement": "Tmax", "setting": "[1]; male, 50 mg/mL/occasion, male dogs, 50 mg/mL, 12 daily doses, Day 1", "value": 22.5, "unit": "min"}, {"measurement": "AUC(0-t)", "setting": "[1]; male, 50 mg/mL/occasion, male dogs, 50 mg/mL, 12 daily doses, Day 1, read-out: AUC0-1", "value": 36.6, "unit": "ng·h/mL"}, {"measurement": "AUC(0-t)", "setting": "[1]; male, 50 mg/mL/occasion, male dogs, 50 mg/mL, 12 daily doses, Day 1, read-out: AUC0-24", "value": 439, "unit": "ng·h/mL"}, {"measurement": "Cmax", "setting": "[1]; male, 50 mg/mL/occasion, male dogs, 50 mg/mL, 12 daily doses, Day 1, read-out: Cmax", "value": 69.7, "unit": "ng/mL"}, {"measurement": "Tmax", "setting": "[1]; male, 50 mg/mL/occasion, male dogs, 50 mg/mL, 12 daily doses, Week 4", "value": 15, "unit": "min"}, {"measurement": "AUC(0-t)", "setting": "[1]; male, 50 mg/mL/occasion, male dogs, 50 mg/mL, 12 daily doses, Week 4, read-out: AUC0-1", "value": 11.8, "unit": "ng·h/mL"}, {"measurement": "AUC(0-t)", "setting": "[1]; male, 50 mg/mL/occasion, male dogs, 50 mg/mL, 12 daily doses, Week 4, read-out: AUC0-24", "value": 142, "unit": "ng·h/mL"}, {"measurement": "Cmax", "setting": "[1]; male, 50 mg/mL/occasion, male dogs, 50 mg/mL, 12 daily doses, Week 4, read-out: Cmax", "value": 23.8, "unit": "ng/mL"}, {"measurement": "Tmax", "setting": "[1]; male, 50 mg/mL/occasion, male dogs, 50 mg/mL, 12 daily doses, Week 13", "value": 15, "unit": "min"}, {"measurement": "AUC(0-t)", "setting": "[1]; male, 50 mg/mL/occasion, male dogs, 50 mg/mL, 12 daily doses, Week 13, read-out: AUC0-1", "value": 10.2, "unit": "ng·h/mL"}, {"measurement": "AUC(0-t)", "setting": "[1]; male, 50 mg/mL/occasion, male dogs, 50 mg/mL, 12 daily doses, Week 13, read-out: AUC0-24", "value": 122, "unit": "ng·h/mL"}, {"measurement": "Cmax", "setting": "[1]; male, 50 mg/mL/occasion, male dogs, 50 mg/mL, 12 daily doses, Week 13, read-out: Cmax", "value": 26.8, "unit": "ng/mL"}, {"measurement": "pIC50", "setting": "α4β1-CS-1", "value": 8.09}]}]}
